Tests used:
Format in all cases: cell-based
[1] = test system: NKX6.1-positive pancreatic endoderm cells derived from human iPS cells; test: Screening of senescence-related reagents
Experimental: FIG. 2-A A schematic diagram illustrating senescence-related reagent screening. […] After the elapse of one week, the cells were counted under a fluorescence microscope. Cells were differentiated to a pancreatic endoderm cell level using a stepwise differentiation-inducing method, and were then re-seeded on a 24-well plate at 2×10^5/well. The following culture media were added to these cultured cells, and the cells were cultured for 1 week. […] After fixed using 4% PFA, the cells were subjected to β-gal staining and NKX6.1 antibody immunostaining, and fluorescently stained images were acquired using BZ-800 (Keyence). The number of NKX6.1-positive cells, the NKX6.1-positive ratio, and the β-gal-positive ratio were calculated using the BZ-[…]/Macro Cell Count function of that microscope. FIGS. 2-A and 3-A show the outline of this procedure. A reagent enabling proliferation of pancreatic endoderm cells derived from human iPS cells was searched for in the senescence-related reagents. […] Then, (1) the number of NKX6.1-positive cells, or (2) the ratio of NKX6.1-positive cells and the ratio of β gal-positive cells were measured after the culture. FIGS. 2-B to 2-D show the results.

[2] = test system: pancreatic endoderm cells after expansion culture; test: Induction of differentiation into β-like cells after expansion culture
Experimental: After the expansion culture, the differentiation into β-like cells was induced using the method by Kimura et al. (Non Patent Literature 1) with a portion thereof being modified. Briefly, pancreatic endoderm cells were detached from a 6-well plate using trypsin, and were then suspended in the S4 culture medium at 3×10^5 cells/ml. The cells were seeded on a V-bottomed 96-well plate at 3×10^4 cells/100 μl/well. […] The induction of differentiation of pancreatic endoderm cells that had been repeatedly passaged 5 times using the expansion culture method with “Y-27632+DMSO” or “Y-27632+ALK5i+RA” into β-like cells was promoted. Then, the efficiency of induction into β-like cells was compared with that of a cell cluster obtained by inducing pancreatic endoderm cells that had not been passaged into B-like cells.

[3] = test system: PDX1+/NKX6.1+ pancreatic endoderm cells; test: Expansion culture with Y-27632 at different concentrations; conditions: 40 days, FIG. 5-A
Experimental: FIG. 5-A Changes in the number of PDX1^+/NKX6.1^+ pancreatic endoderm cells and the total number of cells during expansion culture with Y-27632 (0, 10, or 50 μM). (1) After the cells produced in clause 1 above were washed with PBS(−), 1 ml of 0.25% trypsin-EDTA was added thereto, and the cells were incubated at 37° C. and 5% CO2 for 5 minutes. (2) The adherent cells were detached through pipetting and were added to a 50-ml centrifuge tube. (3) 4 ml of DMEM (Dulbecco's Modified Eagle Medium)/10% FBS/PS (penicillin-streptomycin) was added to the centrifuge tube. (4) The resulting mixture was centrifuged at 400 G for 3 minutes, and the supernatant was removed. (5) The cells were suspended in improved MEM (containing 10 μM Y-27632, 0.5×B-27 Supplement, and 100 U/ml penicillin/streptomycin), and were counted. (6) When the cells were seeded on a 6-well plate, an amount of the suspension necessary to provide 1×10^6 cells/well was collected and was centrifuged at 400 G for 3 minutes (2×10^5 cells/well for a 24-well plate). (7) After the supernatant was removed, the cells were re-suspended in improved MEM (containing 100 ng/ml KGF, 50 ng/ml EGF, 10 mM nicotinamide, 50 μM Y-27632, 0.5×B-27 Supplement, and 100 U/ml penicillin/streptomycin), the suspension was adjusted to correspond to 2 ml/well, and then the cells were seeded. A 6-well plate to which the cells were to be seeded had been coated in advance by adding a solution formed by mixing 10 μl of iMatrix-511 silk and 1.5 ml of PBS(−) to each well 1 hour before seeding, and incubating the plate at 37° C. and 5% CO2 for 1 hour. (8) On the next day (Day 1), the cells were washed with improved MEM, and then the culture medium was changed to improved MEM (5 ml/well) containing 100 ng/ml KGF, 50 ng/ml EGF, 10 mM nicotinamide, 50 μM Y-27632, 0.5×B-27 Supplement, and 100 U/ml penicillin/streptomycin. (9) The cells were washed with improved MEM 3 days after that (on Day 4), and then the culture medium was changed to the same culture medium as that in the step (7) (5 ml/well). (10) The steps (1) to (7) above were conducted 3 days after that (on Day 7), and the next passage (expansion culture) was conducted. Expansion culture and passage culture were repeated by repeating the steps (8), (9), and (10) from the next day. One round of the passage (expansion culture) corresponded to 7 days (operations above). FIGS. 4-A show the outline of this procedure. […]

C[C@@H](N)[C@H]1CC[C@H](C(=O)Nc2ccncc2)CC1 [Y-27632]
ratio of the pancreatic endoderm cells (NKX6.1-positive) ([1]; 50 μM, 1 week, FIG. 2-C): most effective | ratio of β gal-positive cells (senescent cells) ([1]; 1 week, FIG. 2-D): exhibited an effect of reducing the ratio of β gal-positive cells | concentration most suitable for the proliferation ([1]; FIG. 2-B): 50 µM | number of NKX6.1-positive cells (pancreatic endoderm cells) ([1]; culture for 1 week, 24-well plate, FIG. 2-B): significantly increased | potential to differentiate into β-like cells ([2]; after 2 rounds of expansion culture with Y-27632 50 μM, FIG. 4-G): had a potential to differentiate | efficiency of induction to β-like cells on repeated expansion culture ([2]; culture medium for expansion culture with Y-27632): tended to gradually decrease | number of PDX1+/NKX6.1+ pancreatic endoderm cells increased by a factor of ([3]; Y-27632 10 μM): about 1×10^4 | total number of cells increased by a factor of ([3]; Y-27632 10 μM): about 1×10^4 | number of PDX1+/NKX6.1+ pancreatic endoderm cells increased by a factor of ([3]; Y-27632 50 μM): about 1×10^4 | total number of cells increased by a factor of ([3]; Y-27632 50 μM): about 1×10^4
